Measured values: ChEMBL document CHEMBL1131493, “Inhibitors of farnesyl protein transferase. 4-Amido, 4-carbamoyl, and 4-carboxamido derivatives of 1-(8-chloro-6,11-dihydro-5H-benzo[5,6]- cyclohepta[1,2-b]pyridin-11-yl)piperazine and 1-(3-bromo-8-chloro-6,11- dihydro-5H-benzo[5,6]cyclohepta[1,2-b]pyridin-11-yl)piperazine” (J Med Chem, 1998)

Molecular target: T1, Protein farnesyltransferase (Homo sapiens, UniProt P49354+P49356)
Test: Inhibition of Farnesyltransferase from Ras-CVLS or Ras-CVLL in Cos-7 monkey kidney cells
Type: cell-based, Chlorocebus aethiops

SMILES	IC50
O=C(Oc1cccnc1)N1CCN([C@@H]2c3ccc(Cl)cc3CCc3cccnc32)CC1	6900 nM
CN1CCC(OC(=O)N2CCN(C3c4ccc(Cl)cc4CCc4cc(Br)cnc43)CC2)CC1 (stereo unspecified)	> 5000 nM
CCCC[C@H]1CN(C2c3ccc(Cl)cc3CCc3cc(Br)cnc32)CCN1C(=O)CC1CCN(C(N)=O)CC1 (stereo partly specified)	600 nM
COCC[C@H]1CN(C2c3ccc(Cl)cc3CCc3cc(Br)cnc32)CCN1C(=O)CC1CCN(C(N)=O)CC1 (stereo partly specified)	1700 nM
O=C(Cc1ccc[n+]([O-])c1)N1CCN(C2c3ccc(Cl)cc3CCc3ccc[n+]([O-])c32)CC1 (stereo unspecified)	> 20000 nM
CC(C)(C(=O)N1CCN(C2c3ccc(Cl)cc3CCc3cc(Br)cnc32)CC1)c1cccnc1 (stereo unspecified)	900 nM
CC(C)(C(=O)N1CCN(C2c3ccc(Cl)cc3CCc3cccnc32)CC1)c1cccnc1 (stereo unspecified)	6100 nM
O=C(Nc1ccc[n+]([O-])c1)N1CCN(C2c3ccc(Cl)cc3CCc3cc(Br)cnc32)CC1 (stereo unspecified)	3600 nM
O=C(Oc1cccnc1)N1CCN(C2c3ccc(Cl)cc3CCc3cccnc32)CC1 (stereo unspecified)	3000 nM
O=C(Oc1ccc[n+]([O-])c1)N1CCN(C2c3ccc(Cl)cc3CCc3cc(Br)cnc32)CC1 (stereo unspecified)	6000 nM
CC(=O)N1CCC(CC(=O)N2CCN(C3c4ccc(Cl)cc4CCc4cccnc43)CC2)CC1 (stereo unspecified)	2700 nM
CC(=O)N1CCC(CC(=O)N2CCN([C@H]3c4ccc(Cl)cc4CCc4cccnc43)CC2)CC1	6200 nM
CC(C)(C(=O)N1CCN(C2c3ccc(Cl)cc3CCc3cc(Br)cnc32)CC1)c1cc[n+]([O-])cc1 (stereo unspecified)	5000 nM
O=C(Cc1ccccc1)N1CCN(C2c3ccc(Cl)cc3CCc3cccnc32)CC1 (stereo unspecified)	12000 nM

Molecular target: T1, Protein farnesyltransferase
Test: In vitro inhibition of farnesyltransferase farnesylation of the H-ras oncogene
Type: protein-complex assay
Set-up: Inhibition: concentration or dose not given beside the values

SMILES	IC50	Inhibition
O=C(Oc1cccnc1)N1CCN([C@@H]2c3ccc(Cl)cc3CCc3cccnc32)CC1	1280 nM	–
CC(=O)N1CCC(C(=O)N2CCN([C@@H]3c4ccc(Cl)cc4CCc4cccnc43)CC2)CC1	4100 nM	–
CN1CCC(OC(=O)N2CCN(C3c4ccc(Cl)cc4CCc4cc(Br)cnc43)CC2)CC1 (stereo unspecified)	310 nM	–
O=C(Cc1cc[n+]([O-])cc1)N1CCN(C2c3ccc(Cl)cc3CCc3cccnc32)CC1 (stereo unspecified)	740 nM	–
CCCC[C@H]1CN(C2c3ccc(Cl)cc3CCc3cc(Br)cnc32)CCN1C(=O)CC1CCN(C(N)=O)CC1 (stereo partly specified)	27 nM	–
CC(C)(C)NC(=O)N1CCC(CC(=O)N2CCN(C3c4ccc(Cl)cc4CCc4cccnc43)CC2)CC1 (stereo unspecified)	1000 nM	–
CN1CCCC(CC(=O)N2CCN([C@@H]3c4ccc(Cl)cc4CCc4cccnc43)CC2)C1 (stereo partly specified)	700 nM	–
CN1CCC(NC(=O)N2CCN(C3c4ccc(Cl)cc4CCc4cccnc43)CC2)CC1 (stereo unspecified)	470 nM	–
COCC[C@H]1CN(C2c3ccc(Cl)cc3CCc3cc(Br)cnc32)CCN1C(=O)CC1CCN(C(N)=O)CC1 (stereo partly specified)	92 nM	–
O=C(Oc1ccc[n+]([O-])c1)N1CCN(C2c3ccc(Cl)cc3CCc3cccnc32)CC1 (stereo unspecified)	3100 nM	–
COCC[C@H]1CN(C2c3ccc(Cl)cc3CCc3cc(Br)cnc32)CCN1C(=O)CC1CCNCC1 (stereo partly specified)	69 nM	–
O=C(Cc1ccc[n+]([O-])c1)N1CCN(C2c3ccc(Cl)cc3CCc3ccc[n+]([O-])c32)CC1 (stereo unspecified)	3800 nM	–
Clc1ccc2c(c1)CCc1cccnc1C2N1CCNCC1 (stereo unspecified)	30300 nM	–
O=C(CC1CCCNC1)N1CCN(C2c3ccc(Cl)cc3CCc3cccnc32)CC1 (stereo unspecified)	1100 nM	–
CC(C)(C(=O)N1CCN(C2c3ccc(Cl)cc3CCc3cc(Br)cnc32)CC1)c1cccnc1 (stereo unspecified)	300 nM	–
CN1CCCC(OC(=O)N2CCN(C3c4ccc(Cl)cc4CCc4cc(Br)cnc43)CC2)C1 (stereo unspecified)	300 nM	–
COC(=O)N1CCC(CC(=O)N2CCN(C3c4ccc(Cl)cc4CCc4cccnc43)CC2)CC1 (stereo unspecified)	1300 nM	–
O=C(Nc1ccc[n+]([O-])c1)N1CCN(C2c3ccc(Cl)cc3CCc3cc(Br)cnc32)CC1 (stereo unspecified)	240 nM	–
O=C(Nc1ccc[n+]([O-])c1)N1CCN(C2c3ccc(Cl)cc3CCc3cccnc32)CC1 (stereo unspecified)	2200 nM	–
CC(C)(C)OC(=O)N1CCC(CC(=O)N2CCN(C3c4ccc(Cl)cc4CCc4cccnc43)CC2)CC1 (stereo unspecified)	7400 nM	–
CN1CCC(CC(=O)N2CCN([C@@H]3c4ccc(Cl)cc4CCc4cccnc43)CC2)CC1	1800 nM	–
CCCNC(=O)N1CCC(CC(=O)N2CCN(C3c4ccc(Cl)cc4CCc4cccnc43)CC2)CC1 (stereo unspecified)	880 nM	–

SMILES	IC50	Inhibition
CC(=O)N1CCCC(CC(=O)N2CCN(C3c4ccc(Cl)cc4CCc4cccnc43)CC2)C1 (stereo unspecified)	3100 nM	–
O=C(Oc1cccnc1)N1CCN(C2c3ccc(Cl)cc3CCc3cccnc32)CC1 (stereo unspecified)	500 nM	–
CC(C)(C)OC(=O)NCC(=O)N1CCN(C2c3ccc(Cl)cc3CCc3cccnc32)CC1 (stereo unspecified)	4800 nM	–
O=C(Cc1cc[n+]([O-])cc1)N1CCN(C2c3ccc(Cl)cc3CCc3c(Cl)ccnc32)CC1 (stereo unspecified)	330 nM	–
O=C(c1cccc2c1ccc[n+]2[O-])N1CCN(C2c3ccc(Cl)cc3CCc3cc(Br)cnc32)CC1 (stereo unspecified)	–	38%
N[C@@H](CS)CN1CCN(C2c3ccc(Cl)cc3CCc3cc(Br)cnc32)CC1 (stereo partly specified)	–	19%
O=C(Oc1ccc[n+]([O-])c1)N1CCN(C2c3ccc(Cl)cc3CCc3cc(Br)cnc32)CC1 (stereo unspecified)	280 nM	–
CC(C)(C(=O)N1CCN(C2c3ccc(Cl)cc3CCc3cccnc32)CC1)c1ccccc1 (stereo unspecified)	3300 nM	–
CC(C)(C)OC(=O)N1CCC(C(=O)N2CCN(C3c4ccc(Cl)cc4CCc4cccnc43)CC2)CC1 (stereo unspecified)	–	20%
NCNC(=O)N1CCC(CC(=O)N2CCN(C3c4ccc(Cl)cc4CCc4cccnc43)CC2)CC1 (stereo unspecified)	2500 nM	–
O=C(Nc1cc[n+]([O-])cc1)N1CCN(C2c3ccc(Cl)cc3CCc3cccnc32)CC1 (stereo unspecified)	1800 nM	–
CC(=O)N1CCC(CC(=O)N2CCN(C3c4ccc(Cl)cc4CCc4cccnc43)CC2)CC1 (stereo unspecified)	870 nM	–
NC(=O)N1CCC(CC(=O)N2CCN(C3c4ccc(Cl)cc4C=Cc4cc(Br)cnc43)CC2)CC1 (stereo unspecified)	45 nM	–
O=C(N1CCN(C2c3ccc(Cl)cc3CCc3cccnc32)CC1)n1ccnc1 (stereo unspecified)	9800 nM	–
C[C@H](N)C(=O)N1CCC(CC(=O)N2CCN(C3c4ccc(Cl)cc4CCc4cccnc43)CC2)CC1 (stereo partly specified)	2500 nM	–
O=C(Oc1ccccc1)N1CCN(C2c3ccc(Cl)cc3C=Cc3cccnc32)CC1 (stereo unspecified)	880 nM	–
CNC(=O)N1CCC(CC(=O)N2CCN(C3c4ccc(Cl)cc4CCc4cccnc43)CC2)CC1 (stereo unspecified)	1050 nM	–
O=C(Oc1ccccc1)N1CCN(C2c3ccc(Cl)cc3CCc3cccnc32)CC1 (stereo unspecified)	800 nM	–
CNC(=S)N1CCC(CC(=O)N2CCN(C3c4ccc(Cl)cc4CCc4cccnc43)CC2)CC1 (stereo unspecified)	880 nM	–
CC(C(=O)N1CCN(C2c3ccc(Cl)cc3CCc3cccnc32)CC1)c1cccnc1 (stereo unspecified)	4900 nM	–
CN(C)c1ccc(C(=O)N2CCN(C3c4ccc(Cl)cc4CCc4cccnc43)CC2)cc1 (stereo unspecified)	20200 nM	–
COC(=O)N1CCCC(CC(=O)N2CCN(C3c4ccc(Cl)cc4CCc4cccnc43)CC2)C1 (stereo unspecified)	7000 nM	–

SMILES	IC50	Inhibition
O=C(Nc1cccnc1)N1CCN([C@@H]2c3ccc(Cl)cc3CCc3cccnc32)CC1	3200 nM	–
O=C(N1CCN(C2c3ccc(Cl)cc3CCc3cc(Br)cnc32)CC1)n1ccnc1 (stereo unspecified)	1770 nM	–
CC(=O)N1CCC(CC(=O)N2CCN([C@H]3c4ccc(Cl)cc4CCc4cccnc43)CC2)CC1	1600 nM	–
CCN1CCC(CC(=O)N2CCN(C3c4ccc(Cl)cc4CCc4cccnc43)CC2)CC1 (stereo unspecified)	1270 nM	–
O=C(C1CCNCC1)N1CCN(C2c3ccc(Cl)cc3CCc3cccnc32)CC1 (stereo unspecified)	11300 nM	–
CC(C)(C(=O)N1CCN(C2c3ccc(Cl)cc3CCc3cccnc32)CC1)c1ccc[n+]([O-])c1 (stereo unspecified)	1260 nM	–
CCNC(=O)N1CCC(CC(=O)N2CCN(C3c4ccc(Cl)cc4CCc4cccnc43)CC2)CC1 (stereo unspecified)	920 nM	–
CN1CCCC(C(=O)N2CCN(C3c4ccc(Cl)cc4CCc4cccnc43)CC2)C1 (stereo unspecified)	6800 nM	–
NC(=O)N1CCCc2c(C(=O)N3CCN(C4c5ccc(Cl)cc5CCc5cc(Br)cnc54)CC3)cccc21 (stereo unspecified)	–	45%
NC(=O)N1CCCC2C(C(=O)N3CCN(C4c5ccc(Cl)cc5CCc5cc(Br)cnc54)CC3)CCCC21 (stereo unspecified)	1400 nM	–
CC(C)(C(=O)N1CCN(C2c3ccc(Cl)cc3CCc3cc(Br)cnc32)CC1)c1cc[n+]([O-])cc1 (stereo unspecified)	390 nM	–
O=C(CC1CCNCC1)N1CCN([C@H]2c3ccc(Cl)cc3CCc3cc(Br)cnc32)CC1	78 nM	–
O=C(c1cccc2ncccc12)N1CCN(C2c3ccc(Cl)cc3CCc3cccnc32)CC1 (stereo unspecified)	–	15%
O=C(C1CCCC2NCCCC21)N1CCN(C2c3ccc(Cl)cc3CCc3cc(Br)cnc32)CC1 (stereo unspecified)	–	23%
CN1CCC(CC(=O)N2CCN([C@H]3c4ccc(Cl)cc4CCc4cccnc43)CC2)CC1	640 nM	–
N[C@@H](CO)C(=O)N1CCC(CC(=O)N2CCN(C3c4ccc(Cl)cc4CCc4cccnc43)CC2)CC1 (stereo partly specified)	1100 nM	–
CC(=O)N1CCCC(C(=O)N2CCN(C3c4ccc(Cl)cc4CCc4cccnc43)CC2)C1 (stereo unspecified)	4300 nM	–
CN1CCCC(OC(=O)N2CCN(C3c4ccc(Cl)cc4CCc4cccnc43)CC2)C1 (stereo unspecified)	2100 nM	–
CC(C)(C)OC(=O)N1CCC(CC(=O)N2CCN(C3c4ccc(Cl)cc4CCc4cc(Br)cnc43)CC2)CC1 (stereo unspecified)	1290 nM	–
CN1CCCC(NC(=O)N2CCN(C3c4ccc(Cl)cc4CCc4cccnc43)CC2)C1 (stereo unspecified)	660 nM	–
O=C(c1cccc2ncccc12)N1CCN(C2c3ccc(Cl)cc3CCc3cc(Br)cnc32)CC1 (stereo unspecified)	–	38%
N[C@@H](CS)C(=O)N1CCC(CC(=O)N2CCN(C3c4ccc(Cl)cc4CCc4cc(Br)cnc43)CC2)CC1 (stereo partly specified)	230 nM	–

SMILES	IC50	Inhibition
CC(C)(C(=O)N1CCN(C2c3ccc(Cl)cc3CCc3cccnc32)CC1)c1cc[n+]([O-])cc1 (stereo unspecified)	2200 nM	–
CN1CCCC(CC(=O)N2CCN([C@H]3c4ccc(Cl)cc4CCc4cccnc43)CC2)C1 (stereo partly specified)	600 nM	–
CN1CCC(OC(=O)N2CCN(C3c4ccc(Cl)cc4CCc4cccnc43)CC2)CC1 (stereo unspecified)	–	35%
CC(=O)N1CCC(CC(=O)N2CCN([C@@H]3c4ccc(Cl)cc4CCc4cccnc43)CC2)CC1	3500 nM	–
O=C(Cc1cccnc1)N1CCN(C(=O)c2ccc(Cl)cc2)CC1	–	32%
O=C(Cc1ccncc1)NCCNC1c2ccc(Cl)cc2CCc2cccnc21 (stereo unspecified)	25800 nM	–
CSCC[C@H](N)C(=O)N1CCC(CC(=O)N2CCN(C3c4ccc(Cl)cc4CCc4cccnc43)CC2)CC1 (stereo partly specified)	1890 nM	–
CC(C)(C(=O)N1CCN(C2c3ccc(Cl)cc3CCc3cccnc32)CC1)c1ccncc1 (stereo unspecified)	1740 nM	–
NC(=O)N1CCC(CC(=O)N2CCN(C3c4ccc(Cl)cc4CCc4cccnc43)CC2)CC1 (stereo unspecified)	820 nM	–
CN1CCCC(NC(=O)N2CCN(C3c4ccc(Cl)cc4CCc4cc(Br)cnc43)CC2)C1 (stereo unspecified)	54 nM	–
CNC(=O)N1CCC[C@@H](CC(=O)N2CCN(C3c4ccc(Cl)cc4CCc4cccnc43)CC2)C1 (stereo partly specified)	7000 nM	–
Clc1ccc2c(c1)CCc1cccnc1C2N1CCN(CCc2cccnc2)CC1 (stereo unspecified)	–	23%
N[C@@H](CS)C(=O)N1CCN(C2c3ccc(Cl)cc3CCc3cc(Br)cnc32)CC1 (stereo partly specified)	2100 nM	–
NC(=O)N1CCCC(CC(=O)N2CCN(C3c4ccc(Cl)cc4CCc4cccnc43)CC2)C1 (stereo unspecified)	1750 nM	–
O=C(CC1CCNCC1)N1CCN(C2c3ccc(Cl)cc3CCc3cccnc32)CC1 (stereo unspecified)	1250 nM	–
O=C(c1cccc2cccnc12)N1CCN(C2c3ccc(Cl)cc3CCc3cc(Br)cnc32)CC1 (stereo unspecified)	1800 nM	–
O=C(Cc1cccnc1)N1CCN(C(c2ccncc2)c2ccc(Cl)cc2)CC1 (stereo unspecified)	48000 nM	–
CC(S)C(=O)NCC(=O)N1CCN(C2c3ccc(Cl)cc3CCc3cccnc32)CC1 (stereo unspecified)	2780 nM	–
CC(C)(C)NC(=O)N1CCC(CC(=O)N2CCN(C3c4ccc(Cl)cc4CCc4cc(Br)cnc43)CC2)CC1 (stereo unspecified)	108 nM	–
O=C(NCc1ccccc1)N1CCN(C2c3ccc(Cl)cc3CCc3cccnc32)CC1 (stereo unspecified)	4100 nM	–
O=C(CC1CCNCC1)N1CCN(C2c3ccc(Cl)cc3C=Cc3cc(Br)cnc32)CC1 (stereo unspecified)	83 nM	–
